Experimental data from patent US12083130B2, “Combination hormone formulations and therapies” (Caren Pharmaceuticals, Inc., priority 2019, dated 2024).

Tests used:
Aβ levels = settings: mice, cyclic administration, high levels 10 days in a row every 30 days; cited from earlier work
hypogonadal men = settings: 12-year study, hypogonadal men who received T; […] for men who did not; cited from earlier work
[1] = tested on: cortical rat neurons intoxicated with human AβO 1-42; experiment: Example 10: neuroprotection of cortical neurons intoxicated with human AβO 1-42; type: cell-based; settings: BDNF 50 ng/ml; human AβO 1-42 10 μM, 24 h
Text: This is a prophetic example. The 40 and 42 amino acid forms are the most abundant B-amyloid (Aβ) peptide forms found in AD brain senile plaques, as disclosed herein. However, the number of senile plaques in a particular region of the AD brain correlates poorly with the local extent of neuron death or synaptic loss, or with cognitive impairment (Sisodia et al., 1990). Studies have shown a robust correlation between the soluble human Aβ 1-42 oligomer (AβO) levels and the extent of synaptic loss and severity of cognitive impairment (Sakono et al., 2010). This example investigates the neuroprotective effect of the composition prepared as described in Example 2 on cortical neurons incubated for 24 hours in the presence of AβO, an in vitro model of AD (Callizot et al., 2013). Brain-derived neurotrophic factor (BDNF) is used as a positive control in this study.
Cortical rat neurons are cultured at +37° C. in a humidified air/CO2 (95/5) atmosphere. After 11 days of culture, cortical neurons are intoxicated with human AβO 1-42 at 10 μM for 24 hrs. […]
The total number of cortical neurons that survive after 24 h incubation are counted to determine the end point evaluation. […]

For `CC(=O)[C@H]1CC[C@H]2[C@@H]3CCC4=CC(=O)CC[C@]4(C)[C@H]3CC[C@]12C` [progesterone], the Aβ levels (Aβ levels) is given as “decreased Aβ levels”.

For `C[C@]12CC[C@H]3[C@@H](CCC4=CC(=O)CC[C@@]43C)[C@@H]1CC[C@@H]2O` [T, testosterone], the “rate of prostate cancer” value (hypogonadal men) is listed as 2.7%.

B1: BDNF: Brain-derived neurotrophic factor, positive control (protein, UniProt P23560 19-247, looked up)
Neurotrophic factor BDNF …: APMKEANIRGQGGLAYPGVRTHGTLESVNGPKAGSRGLTSLADTFEHVIEELLDEDQKVRPNEENNKDADLYTSRVMLSSQVPLEPPLLFLLEEYKNYLDAANMSMRVRRHSDPARRGELSVCDSISEWVTAADKKTAVDMSGGTVTVLEKVPVSKGQLKQYFYETKCNPMGYTKEGCRGIDKRHWNSQCRTTQSYVRALTMDSKKRIGWRFIRIDTSCVCTLTIKRGR
With B1 the “cell death resulting from AβO” value [1] was “inhibits cell death resulting from AβO”.
